Laboratory results reported in patent US20090042883A1, “ANTITUMOR AGENT” (KYOWA HAKKOKOGYO CO., priority 2005, published 2009).

What was measured:
[1] = system: human chronic lymphocytic leukemia-derived MEC-1 cells; assay: Growth inhibition test on human chronic lymphocytic leukemia-derived MEC-1 cells (WST-1, % viability); format: cell-based; settings: test compound 10 μmol/L, 72 hours, cells without test compound = 100%
Experimental: Ten thousand cells of human chronic lymphocytic leukemia-derived MEC-1 were inoculated into each well of a 96-well microplate (manufactured by Nunc Corp.), and using RPMI1640 medium (culture medium) containing 10% FCS, preculturing was performed in a 5% carbon dioxide incubator at 37° C. for 1 hour. A DMSO solution of each test compound prepared in a concentration of 10 mmol/L was diluted with the culture medium to a final concentration of 10 μmol/L, and the diluted solution was added to each well. The individual wells were further cultured in the 5% carbon dioxide incubator at 37° C. for 72 hours. After completion of the culturing, 10 μL of WST-1 labeled mixture (manufactured by Roche Diagnostic Corp.) was added to each well, and culturing was performed in the 5% carbon dioxide incubator at 37° C. for 3 hours. Using a microplate spectrophotometer (M-SPmax 250; manufactured by Molecular Devices Corp.), the absorbance of each well was measured at 450 nm and 655 nm. The value obtained by subtracting the absorbance at 450 nm from the absorbance at 655 nm (absorbance difference) was calculated for each well. The value for cells not incorporated with a test compound was designated as 100%, and the value at a well not containing cells was designated as 0%. By comparing these values with the absorbance difference obtained at the well in which each test compound was added, the cell viability (% viability) after treatment with the test compound was calculated.

[2] = system: human lung cancer NCI-H596 cells; assay: Antitumor effect in vivo, mouse model transplanted with human lung cancer NCI-H596 cells; settings: NCI-H596 subcutaneous transplant in BALB/cAJc1-nu mice; 50 mg/kg intravenously twice a day on days 0 to 4; tumor volume to day 17
Experimental: Using an experimental system in which human lung cancer NCI-H596 cells were transplanted into immunodeficient mice as disease models of solid tumor, the antitumor effect in vivo of Compound 33 was examined.
NCI-H596 cells were cultured and grown in RPMI1640 medium containing 10% fetal calf serum (FCS) in a 5% carbon dioxide incubator at 37° C., and the cultured cells (1×10^7 cells/mouse) were subcutaneously, ventrally transplanted into BALB/cAJc1-nu mice (CLEA Japan). From the mice in which tumors were formed, the tumors were removed. The tumor tissues were cut into small pieces of about 8 mm^3, which were subcutaneously, ventrally transplanted, using a trocar needle, into BALB/cAJc1-nu mice (CLEA Japan) to be used for experiment. Seventeen days after the transplantation, the major axis and minor axis of the tumors subcutaneously grown were measured with slide calipers, and the tumor volume was determined according to the following formula: […]
(§1) At the same time, the body weight of each mouse was measured, and the mice were divided into two groups, i.e., a group to be administered with drugs and a group not to be administered with drugs, such that each group consists of five mice with various weights and tumor volumes. This day was defined as day 0 of the administration test. Drug administration was started in the following manner. […]

[3] = system: human chronic myelocytic leukemia K562 cells; assay: Antitumor effect in vivo, mouse model transplanted with human chronic myelocytic leukemia K562 cells; settings: K562 subcutaneous transplant in Fox C.B-17/Icr-scid mice; 100 mg/kg intravenously twice a day on days 0, 1, 2, 7, 8, 9; tumor volume to day 22
Experimental: Using an experimental system in which human chronic myelocytic leukemia K562 cells were transplanted into immunodeficient mice as disease models of hematopoietic tumor, the antitumor effect in vivo of Compound 33 was examined.
One day before the transplantation of cancer cells, an anti-asialo GM1 antibody was intraabdominally administered to Fox C.B-17/Icr-scidJc1 mice (CLEA Japan) in an amount of 0.3 mg per mouse. K562 cells were cultured and grown in RPMI1640 medium containing 10% fetal calf serum (FCS) in a 5% carbon dioxide incubator at 37° C., and the cultured cells (1×10^7 cells/mouse) were subcutaneously, ventrally transplanted into the mice. Ten days after the transplantation, the major axis and minor axis of the tumors subcutaneously grown were measured with slide calipers, and the tumor volume was determined according to the following formula: […]
as §1

[4] = system: human prostate cancer 22Rv1 cells; assay: Antitumor effect in vivo, mouse model transplanted with human prostate cancer 22Rv1 cells; settings: 22Rv1 subcutaneous transplant in BALB/cAJc1-nu mice; 100 mg/kg intravenously twice a day on days 0 to 4; tumor volume to day 17
Experimental: Using an experimental system in which human prostate cancer 22Rv1 cells were transplanted into immunodeficient mice as disease models of solid tumor, the antitumor effect in vivo of Compound 33 was examined.
22Rv1 cells were cultured and grown in RPMI1640 medium containing 10% fetal calf serum (FCS) in a 5% carbon dioxide incubator at 37° C., and the cultured cells (1×10^7 cells/mouse) were subcutaneously, ventrally transplanted into BALB/cAJc1-nu mice (CLEA Japan). Seventeen days after the transplantation, the major axis and minor axis of the tumors subcutaneously grown were measured with slide calipers, and the tumor volume was determined according to the following formula: […]
as §1

SMILES	Viability of tumor cells (% viability), Human chronic lymphocytic leukemia MEC-1 cells [1]	other results
CCc1c(O)cc(O)c(C(=O)c2ccc(OC)cc2)c1CC(=O)N(CCO)CCO [Compound 13]	7%	
CCc1c(O)cc(O)c(C(=O)c2ccc(OC)cc2)c1CC(=O)N(C)Cc1cccnc1 [Compound 16]	3%	
CCc1c(O)cc(O)c(C(=O)c2ccc(OC)cc2)c1CC(=O)N1CCN(c2ccccc2C#N)CC1 [Compound 17]	4%	
CCc1c(O)cc(O)c(C(=O)c2ccc(OC)cc2)c1CC(=O)N1CCN(c2ncccn2)CC1 [Compound 32]	4%	
CCc1c(O)cc(O)c(C(=O)c2ccc(OC)cc2)c1CC(=O)N(CCO)CCOC [Compound 33]	4%	antitumor effect in vivo (tumor volume, FIG. 2) [2]: apparent suppression of tumor growth; antitumor effect in vivo (tumor volume, FIG. 1) [3]: apparent suppression of tumor growth; antitumor effect in vivo (tumor volume, FIG. 3) [4]: apparent suppression of tumor growth
CCc1c(O)cc(O)c(C(=O)c2ccc(OC)cc2)c1CC(=O)N1CCc2cc(OC)c(OC)cc2C1 [Compound 38]	4%	
CCc1c(O)cc(O)c(C(=O)c2ccc(OC)c(OC)c2)c1CC(=O)N1CCN(c2ccccc2)CC1 [Compound 41]	4%	
CCc1c(O)cc(O)c(C(=O)c2ccc(OC)c(OC)c2)c1CC(=O)N(CCO)CCOC [Compound 56]	4%	
CCc1c(O)cc(O)c(C(=O)c2ccc(OC)cc2)c1CC(=O)N1CCC(CO)CC1 [Compound 61]	5%	
CCc1c(O)cc(O)c(C(=O)c2ccc(OC)cc2)c1CC(=O)N(CCO)Cc1ccco1 [Compound 69]	4%	
CCc1c(O)cc(O)c(C(=O)c2ccc(OC(F)(F)F)cc2)c1CC(=O)N(CCO)CCOC [Compound 88]	5%	
CCc1c(O)cc(O)c(C(=O)c2ccc(OC(F)F)cc2)c1CC(=O)N(CCO)CCOC [Compound 91]	4%	
CCc1c(O)cc(O)c(C(=O)c2ccc(SC)cc2)c1CC(=O)N(CCO)CCOC [Compound 95]	4%	
CCc1c(O)cc(O)c(C(=O)c2ccc(O)c(OC)c2)c1CC(=O)N(CCOC)CCOC [Compound 106]	4%	
CCc1c(O)cc(O)c(C(=O)c2ccc(S(C)(=O)=O)cc2)c1CC(=O)N(CCOC)CCOC [Compound 107]	5%	
CCOc1ccc(C(=O)c2c(O)cc(O)c(CC)c2CC(=O)N(CCO)CCOC)cc1 [Compound 122]	4%	
CCc1c(O)cc(O)c(C(=O)c2ccc(OC(C)C)cc2)c1CC(=O)N(CCO)CCOC [Compound 124]	4%	
CCc1c(O)cc(O)c(C(=O)c2ccc(OCCN3CCOCC3)c(OC)c2)c1CC(=O)N(CCOC)CCOC [Compound 125]	5%	
CCc1c(O)cc(O)c(C(=O)c2ccc(OC(C)C)cc2)c1CC(=O)N(CCOC)CCN1CCOCC1 [Compound 134]	6%	
CCc1c(O)cc(O)c(C(=O)c2ccc(OCCN3CCOCC3)c(OC)c2)c1CC(=O)N(CCOC)CCOC.Cl [Compound 139]	5%	
CCc1c(O)cc(O)c(C(=O)c2ccc(C(F)(F)F)cc2)c1CC(=O)N(CCO)CCOC [Compound 144]	4%	
CCc1c(O)cc(O)c(C(=O)c2ccc(OCCCN3CCOCC3)c(OC)c2)c1CC(=O)N(CCOC)CCOC [Compound 149]	5%	
CCc1c(O)cc(O)c(C(=O)c2ccsc2)c1CC(=O)N(CCO)CCOC [Compound 151]	4%	
